Data from patent US12472171B2, “Methods for treating hypercholesterolemia” (BIOGEN MA INC., priority 2020, dated 2025).

Assays:
[1] = test system: healthy volunteers; test: 28-day once-daily dosing study in healthy volunteers (Study 1), circulating total cholesterol and oxysterols; type: in vivo, human
Description: Forty-two healthy volunteers received Compound 1 QD for 28 days (or before early withdrawal), with 6 individual participants per cohort receiving 1 mg (Cohort 1), 3 mg (Cohort 2), 10 mg (Cohort 3), 30 mg (Cohort 4), 60 mg loading dose with 10 mg maintenance dosing (Cohort 5) Compound 1, 60 mg (Cohort 6), or 90 mg loading dose on Day 1 and Day 2 with 30 mg maintenance dosing (Cohort 7). There were also 14 participants who received placebo in the study; 1 participant in Cohort 4 was misdosed on Day 19 and appeared to have received at least one 30 mg dose of Compound 1. The following protocol deviations were reported for participants in Cohorts 1 through 5: they received predose water ad lib (not restricted for 1 hour before and 1 hour after dose) and a meal administered 30 minutes postdose (not 4 hours postdose). A total of 49 participants completed treatment, including 37 participants who received active treatment.
Participants received the first dose of study treatment (Compound 1 or placebo) on Day 1 and continued to receive once-daily study treatment through Day 28. Participants remained in the clinic throughout the dosing period. Participants were discharged on Day 29 after completing all assessments.
Blood was periodically withdrawn from each volunteer and immediately stored at −80° C. For measuring metabolite concentrations in human serum, the samples were centrifuged and the resulting supernatant was used for further analysis.
Free oxysterols were extracted from the samples with methanol using the Biocrates Kit filter plate. The plate was loaded with an internal standard mixture beforehand. The metabolite concentrations were determined by UHPLC-MS/MS with multiple reaction monitoring (MRM) in a positive mode using a SCIEX API 5500 QTRAP® (AB SCIEX, Darmstadt, German) instrument with electrospray ionization (ESI). Data were quantitated using appropriate mass spectrometry software and imported in Biocrates Met/DQ™ software for further analysis.

[2] = test system: healthy volunteers; test: Population PK/PD model (Monolix) of circulating cholesterol versus Compound 1 plasma concentration, from three phase I studies; parameters: species or system human
Description: FIG. 2 is a bar graph showing predicted steady-state concentrations of circulating cholesterol levels during treatment with Compound 1 for subject administered placebo, 1 mg, 3 mg, 10 mg, 30 mg or 60 mg per day of Compound 1 at pharmacodynamic steady-state. The predicted concentrations are from simulations based on data from three phase I trials of Compound 1.
Based on these observations, a population PK/PD model was developed using Monolix to describe circulating cholesterol concentration as a function of plasma concentration of Compound 1 and exposure. The model was developed from cholesterol data from the study described above (Study 1) as well as two additional clinical studies (Study 2 and Study 3) in healthy volunteers. In Study 2, thirty healthy volunteers received a single oral dose of Compound 1 with 6 individual participants per cohort receiving 3 mg (Cohort 1), 10 mg (Cohort 2), 30 mg (Cohort 3), 60 mg (Cohort 4), 100 mg (Cohort 5). There were also 9 participants who received placebo in the study. In Study 3, 8 healthy adult volunteers received a single dose of 30 mg of Compound 1.

[3] = test system: rat OPCs; test: Sterol levels (Metabolon HD4) in rat OPC cultures treated with Compound 1; type: cell-based; settings: rat OPC culture
Description: Enriched populations of oligodendrocytes from female Sprague Dawley postnatal day 2 (P2) rats were grown in culture. Briefly, the forebrain was dissected and placed in Hank's buffered salt solution (HBSS) (Life technologies). The tissue was cut into 1 mm fragments and incubated at 37° C. for 15 min in 0.01% trypsin and 10 μg/ml DNase. Dissociated cells were plated on poly-D-lysine (PDL)-coated T75 tissue culture flasks and grown at 37° C. for 10 days in Dulbecco's Modified Eagle Medium (DMEM) with 20% fetal calf serum (Life technologies). Oligodendrocyte precursors (A2B5+) were collected by shaking the flask overnight at 200 rpm at 37° C., resulting in a 95% pure population. Cultures were maintained in a defined growth medium (high glucose DMEM, 0.1% BSA, 50 ug/ml Apo-transferrin, 5 ug/ml insulin, 30 nM sodium selenite, 10 nM biotin and hydrocortisone) with 10 ng/ml fibroblast growth factor/platelet-derived growth factor (FGF/PDGF) (Peprotech) for 2-3 days. For assessing the ability of Compound 1 to promote the differentiation of rat A2B5+ progenitor cells into mature myelin basic protein positive (MBP+) myelinating oligodendrocytes, A2B5+ cells were plated into 10-cm PDL coated culture plates in FGF/PDGF free growth medium supplemented with 10 ng/ml CNTF and 15 nM T3 and were immediately treated for with Compound 1. The cell pellets were collected at 24 hours and 72 hours in culture and stored at −80° C. The cell pellets were subsequently shipped to Metabolon (Morrisville, NC, USA) and maintained at −80° C. during shipping and storage until processed. The cell pellet samples were extracted with methanol under vigorous shaking for 2 min (Glen Mills GenoGrinder 2000) to precipitate protein and dissociate small molecules bound to protein or trapped in the precipitated protein matrix, followed by centrifugation to recover chemically diverse metabolites. The resulting extract were next aliquot and analyzed on Metabolon's HD4 platform. Several types of quality control samples, including recovery standards added prior to extraction, technical replicates from a pool combined from each experimental sample, process and solvent blanks, and spiked a cocktail of QC standards, were applied during sample preparation and analysis for quality assessment and filtering failed samples.

## CC[C@H]1CC[C@@H](Oc2ccc3cc(CN4CCC(C(=O)O)CC4)ccc3c2)CC1 [Compound 1, 1-((6-(((1s,4s)-4-ethylcyclohexyl)oxy)naphthalen-2-yl)methyl)piperidine-4-carboxylic acid]
[1]; healthy human volunteers
  accumulation of 7-dehydrocholesterol (7-DHC): causes accumulation of 7-dehydrocholesterol (7-DHC)
[1]; healthy volunteers, 60 mg dose, Study 1
  average decrease in total cholesterol: approximately 20%
[1]; healthy volunteers, QD for 28 days, FIG. 1
  reduction in total circulating cholesterol: gradual, time- and dose-dependent reduction in total circulating cholesterol
[2]; 60 mg QD, steady state
  model-predicted decrease of circulating cholesterol: approximately 35%
[2]; after discontinuation of treatment
  predicted time for circulating cholesterol to return to baseline after discontinuation: ≤ 30 days
[2]; daily dose of 60 mg
  steady-state concentration of Compound 1: about 3 μg/mL
[2]; daily dosing, cholesterol reduction predicted over the same time frame
  time of increase to steady-state concentrations of Compound 1 in plasma: approximately 15 days
[2]; plasma concentration of Compound 1, population PK/PD model
  EC50 for reduction in circulating cholesterol concentration: about 3 μg/mL
[2]; population PK/PD model
  circulating cholesterol concentration in the model by daily dose: reduced at all daily doses higher than 10 mg
[3]; 24 hours
  7-DHC versus vehicle control: 8.3 folds
  cholesterol versus vehicle control: 0.64 folds
  desmosterol versus vehicle control: 0.44 folds
[3]; 72 hours
  7-DHC versus vehicle control: 12.86 folds
  cholesterol versus vehicle control: insignificant change
  desmosterol versus vehicle control: 0.4 folds
